Results: PubChem BioAssay (NCI)
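Growth conditions: 96-well plates. Treatment: test compound, 48 hours, 5 concentrations. Analysis: linear interpolation between bracketing concentrations; unreached endpoints set to highest concentration. Definition used: TGI = concentration required for complete inhibition of growth.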

Experiments:
Assay in all cases: NCI tumour cell line growth inhibition, 48 h
[1] = tested on: SK-MEL-2 melanoma
[2] = tested on: UACC-257 melanoma
[3] = tested on: SK-MEL-28 melanoma
[4] = tested on: HOP-62 NSCLC
[5] = tested on: BT-549 breast
[6] = tested on: SK-MEL-5 melanoma
[7] = tested on: SNB-75 CNS
[8] = tested on: MCF7 breast
[9] = tested on: SN12C renal
[10] = tested on: OVCAR-4 ovarian
[11] = tested on: HCT-116 colon
[12] = tested on: SF-295 CNS
[13] = tested on: SW-620 colon
[14] = tested on: CAKI-1 renal
[15] = tested on: HCT-15 colon
[16] = tested on: DU-145 prostate
[17] = tested on: CCRF-CEM leukemia
[18] = tested on: UACC-62 melanoma
[19] = tested on: U251 CNS
[20] = tested on: KM12 colon
[21] = tested on: K-562 leukemia
[22] = tested on: LOX IMVI melanoma
[23] = tested on: M14 melanoma
[24] = tested on: 786-0 renal
[25] = tested on: COLO 205 colon
[26] = tested on: A549 NSCLC
[27] = tested on: TK-10 renal
[28] = tested on: UO-31 renal
[29] = tested on: HOP-92 NSCLC
[30] = tested on: A498 renal
[31] = tested on: IGROV1 ovarian
[32] = tested on: SNB-19 CNS
[33] = tested on: MDA-N
[34] = tested on: NCI-H460 lung
[35] = tested on: MDA-MB-435
[36] = tested on: RXF 393 renal
[37] = tested on: SF-539 CNS
[38] = tested on: T-47D breast
[39] = tested on: HT29 colon
[40] = tested on: MOLT-4 leukemia
[41] = tested on: EKVX NSCLC
[42] = tested on: PC-3 prostate
[43] = tested on: NCI-H23 lung
[44] = tested on: OVCAR-5 ovarian
[45] = tested on: OVCAR-3 ovarian
[46] = tested on: HS 578T breast
[47] = tested on: SK-OV-3 ovarian
[48] = tested on: ACHN renal
[49] = tested on: HCC-2998 colon
[50] = tested on: NCI/ADR-RES ovarian
[51] = tested on: HL-60(TB) leukemia
[52] = tested on: RPMI-8226 leukemia
[53] = tested on: SR leukemia
[54] = tested on: SF-268 CNS
[55] = tested on: OVCAR-8 ovarian
[56] = tested on: NCI-H226 lung
[57] = tested on: MDA-MB-231 breast
[58] = tested on: MALME-3M melanoma
[59] = tested on: NCI-H522 lung
[60] = tested on: KM20L2 colon
[61] = tested on: RXF-631 renal
[62] = tested on: DLD-1 colon
[63] = tested on: LXFL 529 NSCLC
[64] = tested on: SNB-78 CNS
[65] = tested on: DMS 273 small cell lung
[66] = tested on: M19-MEL melanoma
[67] = tested on: DMS 114 small cell lung
[68] = tested on: HOP-18 NSCLC

SMILES: CCOc1ccccc1N=Cc1c2ccccc2cc2ccccc12
- TGI [1]: 53.4 µM
- TGI [2]: > 74.4 µM
- TGI [3]: > 73.5 µM
- TGI [4]: > 84.3 µM
- TGI [5]: 70.1 µM
- TGI [6]: > 83.8 µM
- TGI [7]: 47.7 µM
- TGI [8]: > 79.8 µM
- TGI [9]: 61.5 µM
- TGI [10]: > 74 µM
- TGI [11]: 41.5 µM
- TGI [12]: > 100 µM
- TGI [13]: > 100 µM
- TGI [14]: > 92.4 µM
- TGI [15]: > 83.5 µM
- TGI [16]: 58.4 µM
- TGI [17]: > 58.1 µM
- TGI [18]: > 100 µM
- TGI [19]: > 63.9 µM
- TGI [20]: 49.3 µM
- TGI [21]: > 67.7 µM
- TGI [22]: 38.2 µM
- TGI [23]: 41.1 µM
- TGI [24]: 41.1 µM
- TGI [25]: > 88.7 µM
- TGI [26]: 80.9 µM
- TGI [27]: 67.2 µM
- TGI [28]: 43.6 µM
- TGI [29]: 53.4 µM
- TGI [30]: > 72.4 µM
- TGI [31]: 49.9 µM
- TGI [32]: > 88.4 µM
- TGI [33]: 53.3 µM
- TGI [34]: > 100 µM
- TGI [35]: 56 µM
- TGI [36]: 37.4 µM
- TGI [37]: > 71.4 µM
- TGI [38]: 64.1 µM
- TGI [39]: 54.2 µM
- TGI [40]: 53.3 µM
- TGI [41]: 52.3 µM
- TGI [42]: > 68.8 µM
- TGI [43]: 45.9 µM
- TGI [44]: 68.9 µM
- TGI [45]: > 67.6 µM
- TGI [46]: > 53.9 µM
- TGI [47]: 68.6 µM
- TGI [48]: > 93.3 µM
- TGI [49]: 44.3 µM
- TGI [50]: > 66.1 µM
- TGI [51]: 53 µM
- TGI [52]: 56.5 µM
- TGI [53]: 61.7 µM
- TGI [54]: 54.5 µM
- TGI [55]: 70 µM
- TGI [56]: > 100 µM
- TGI [57]: 67.4 µM

SMILES: CCCC(=O)OC(OC(=O)CCC)c1ccc([N+](=O)[O-])o1
- TGI [1]: 86.2 µM
- TGI [2]: 51.9 µM
- TGI [3]: 46.9 µM
- TGI [4]: > 100 µM
- TGI [5]: > 100 µM
- TGI [6]: > 100 µM
- TGI [7]: > 100 µM
- TGI [8]: 35.4 µM
- TGI [9]: 31.3 µM
- TGI [11]: 32.8 µM
- TGI [12]: > 100 µM
- TGI [13]: 41.2 µM
- TGI [14]: 38.4 µM
- TGI [15]: 43.4 µM
- TGI [16]: > 100 µM
- TGI [17]: > 100 µM
- TGI [18]: 49.1 µM
- TGI [19]: > 100 µM
- TGI [20]: > 100 µM
- TGI [21]: > 100 µM
- TGI [22]: 58.5 µM
- TGI [23]: 47.8 µM
- TGI [24]: 36.5 µM
- TGI [25]: 54.9 µM
- TGI [26]: > 100 µM
- TGI [27]: 53.5 µM
- TGI [28]: 56.7 µM
- TGI [29]: 56.3 µM
- TGI [30]: > 100 µM
- TGI [31]: 28.3 µM
- TGI [32]: > 100 µM
- TGI [33]: 46.3 µM
- TGI [34]: > 100 µM
- TGI [35]: 47.4 µM
- TGI [36]: 54 µM
- TGI [37]: > 100 µM
- TGI [58]: 40.3 µM
- TGI [38]: 61.5 µM
- TGI [39]: 42.8 µM
- TGI [40]: 98.4 µM
- TGI [41]: 99.6 µM
- TGI [42]: > 100 µM
- TGI [43]: 48.8 µM
- TGI [44]: 39.6 µM
- TGI [45]: 41.4 µM
- TGI [46]: > 100 µM
- TGI [47]: > 100 µM
- TGI [48]: 49.9 µM
- TGI [49]: 32.1 µM
- TGI [50]: > 100 µM
- TGI [51]: 88.3 µM
- TGI [52]: 49.7 µM
- TGI [59]: 28.9 µM
- TGI [53]: 53.1 µM
- TGI [54]: > 100 µM
- TGI [55]: > 100 µM
- TGI [57]: 68 µM

SMILES: COC(=O)C(C)Oc1ccc(O)cc1 (configuration not stated)
- TGI [2]: > 100 µM
- TGI [3]: 62 µM
- TGI [4]: > 100 µM
- TGI [60]: > 100 µM
- TGI [6]: > 100 µM
- TGI [7]: > 100 µM
- TGI [61]: > 100 µM
- TGI [9]: > 100 µM
- TGI [10]: > 100 µM
- TGI [11]: 40.3 µM
- TGI [12]: > 100 µM
- TGI [62]: > 100 µM
- TGI [13]: > 100 µM
- TGI [14]: > 100 µM
- TGI [15]: > 100 µM
- TGI [17]: > 100 µM
- TGI [18]: > 100 µM
- TGI [19]: > 100 µM
- TGI [20]: > 100 µM
- TGI [21]: > 100 µM
- TGI [23]: > 100 µM
- TGI [63]: > 100 µM
- TGI [64]: > 100 µM
- TGI [24]: > 100 µM
- TGI [25]: > 100 µM
- TGI [26]: > 100 µM
- TGI [27]: > 100 µM
- TGI [28]: > 100 µM
- TGI [29]: > 100 µM
- TGI [65]: > 100 µM
- TGI [30]: > 100 µM
- TGI [31]: > 100 µM
- TGI [32]: > 100 µM
- TGI [34]: > 100 µM
- TGI [37]: > 100 µM
- TGI [66]: > 100 µM
- TGI [58]: > 100 µM
- TGI [39]: > 100 µM
- TGI [41]: > 100 µM
- TGI [43]: > 100 µM
- TGI [44]: > 100 µM
- TGI [45]: > 100 µM
- TGI [47]: > 100 µM
- TGI [48]: > 100 µM
- TGI [67]: 34.7 µM
- TGI [49]: > 100 µM
- TGI [51]: > 100 µM
- TGI [68]: > 100 µM
- TGI [52]: > 100 µM
- TGI [59]: > 100 µM
- TGI [54]: 44.5 µM
- TGI [55]: > 100 µM
- TGI [56]: > 100 µM
